Laboratory results: ChEMBL document CHEMBL4007488, “Amphiphilic Indole Derivatives as Antimycobacterial Agents: Structure-Activity Relationships and Membrane Targeting Properties” (J Med Chem, 2017)

Key:
[1] = system: Mycobacterium tuberculosis; test: Antimycobacterial activity against Mycobacterium tuberculosis H37Rv ATCC 27294 assessed as growth inhibition at 10 uM after 5 days relative to control; assay type: functional; details: H37Rv ATCC 27294, 120 h, read-out: GI
[2] = system: Mycolicibacterium smegmatis; test: Antimycobacterial activity against Mycobacterium smegmatis MC2 155 ATCC 700084 assessed as growth inhibition at 10 uM after 5 days relative to control; assay type: functional; details: MC2 155 ATCC 700084, 120 h, read-out: GI

Compound	inhibition of growth at 10 µM [1] [%]	inhibition of growth at 10 µM [2] [%]
CCCCCCCCn1cc(CN2CCC(C)CC2)c2cc(OC)ccc21	99	99
CCCCCCCCn1cc(CNCCC)c2cc(F)ccc21	99	99
CC(C)=CCC/C(C)=C/Cn1cc(CNC2CCCC2)c2cc(F)ccc21	99	99
CC(C)=CCC/C(C)=C/Cn1cc(CN2CCSCC2)c2cc(F)ccc21	99	99
CCCCCCCCn1cc(CN2CCCCC2)c2cccc(OC)c21	99	99
CCCCCCCCn1cc(CNC23CC4CC(CC(C4)C2)C3)c2cc(F)ccc21	99	99
CCCCCCCCn1cc(CNC2CCCCCC2)c2cc(F)ccc21	99	99
CCCCCCCCn1cc(CN2CCC(C)CC2)c2cc(F)ccc21	99	99
CC(C)=CCC/C(C)=C/Cn1cc(CN2CCC3(CC2)OCCO3)c2cc(F)ccc21	99	99
CC(C)=CCC/C(C)=C/Cn1cc(CN2CCOCC2)c2cc(F)ccc21	99	99
CCCCCCCCn1cc(CN(CCC)CCC)c2cc(F)ccc21	99	99
CCCCCCCCn1cc(CN2CCN(CC)CC2)c2cc(F)ccc21	99	99
CCCCCCCCn1cc(CN2CCCCC2)c2cc(Br)ccc21	99	99
CCCCCCCCn1cc(CN(CC)CCC)c2cc(F)ccc21	99	99
CC(C)=CCC/C(C)=C/Cn1cc(CN2CCCCC2)c2cc(Br)ccc21	99	99
CCCN(C)Cc1cn(C/C=C(\C)CCC=C(C)C)c2ccc(F)cc12	99	99
CCCCCCCCn1cc(CNC23CC4CC(CC(C4)C2)C3)c2ccc(OC)cc21	99	99
CCCCCCCCn1cc(CN2CCC(C)CC2)c2cccc(F)c21	99	99
CCCCCCCCn1cc(CN2CCCCCC2)c2cc(F)ccc21	99	99
CCCCCCCCn1cc(CN(C)CCC)c2cc(F)ccc21	99	99

Compound	inhibition of growth at 10 µM [1] [%]	inhibition of growth at 10 µM [2] [%]
CCCCCCCCn1cc(CN2CCOCC2)c2cc(F)ccc21	99	99
CCCCCCCCn1cc(CN2CCC3(CC2)OCCO3)c2cc(F)ccc21	99	99
CCCCCCCCn1cc(CNC23CC4CC(CC(C4)C2)C3)c2c(OC)cccc21	99	99
CCCCCCCCn1cc(CN2CCC3(CC2)OCCO3)c2cccc(OC)c21	99	99
CCN1CCN(Cc2cn(C/C=C(\C)CCC=C(C)C)c3ccc(F)cc23)CC1	99	99
CCCCCCCCn1cc(CN2CCC(C)CC2)c2cccc(OC)c21	99	99
CCCCCCCCn1cc(CN2CCCCC2)c2ccccc21	99	99
CCCCCCCCn1cc(CNC23CC4CC(CC(C4)C2)C3)c2cccc(OC)c21	99	99
CCCCCCCCn1cc(CN2CCCCC2)c2cc(Cl)ccc21	99	99
CC(C)=CCC/C(C)=C/Cn1cc(CN2CCCCC2)c2cccnc21	99	99
CCCCCCCCn1cc(CN2CCC3(CC2)OCCO3)c2cccc(F)c21	99	99
CCCCCCCCn1cc(CNC(C)C)c2cc(F)ccc21	99	99
Fc1ccc2c(c1)c(CN1CCCCC1)cn2CCCc1ccccc1	99	99
CCCCCCCCn1cc(CN2CCCCCC2)c2ccc(OC)cc21	99	99
CCCCCCCCn1cc(CN(CCCC)CCCC)c2cc(F)ccc21	99	99
CC(C)=CCC/C(C)=C/Cn1cc(CNC23CC4CC(CC(C4)C2)C3)c2cc(F)ccc21	99	99
CCCCCCCCn1cc(CN2CCN(C)CC2)c2cc(F)ccc21	99	99
CC(C)=CCC/C(C)=C/Cn1cc(CN2CCCCC2)c2ccccc21	99	99
O=C(Cn1cc(CN2CCCCC2)c2cc(F)ccc21)NC1CC1	99	99
